Laboratory results reported in patent US20040266843A1, “Sulfonamide substituted indolinones as inhibitors of DNA dependent protein kinase (DNA-PK)” (Sugen, Inc., priority 2003, published 2004).

Target: DNA-PKcs (Homo sapiens, UniProt P78527)
Assay: DNA-PK assay, Scintillation Proximity Assay (SPA) format
Assay type: biochemical
Conditions: room temperature, 0.23 nM DNA-PKcs, 0.3 μM ATP, 1% DMSO
Method: The assay for DNA-PK was optimized to be performed in 96-well plates using a Scintillation Proximity Assay (SPA) format at room temperature. […] When inhibitors were included, they were diluted to 5× the desired concentration in 5% DMSO and diluted 1:5 in the reaction mixture bringing the final DMSO concentration to 1%. […] Activating DNA-DNA fragment consisting of 32 complementary base pairs with 5 non-complementary T's on both ends of the two strands Sequence-[NT], and of the complementary strand-[NT]. […] Peptide substrate-biotin-[…]. Dissolved in DMSO at a concentration of 5 mg/ml for the stock solution. Alternatively, fragments of the peptide substrate can be used, such as, without limitation, […]. The kinase reaction was stopped by adding […] of a solution containing 50 μM ATP, 5 mM EDTA, 0.1% Triton X-100, and 0.5 mg of streptavidin coated polyvinyltoluene SPA beads (Amersham). After a 10 min. incubation and a short spin (to pellet the beads), the plates were read on a Trilux plate reader.

Sequence of DNA-PKcs (P78527 whole entry): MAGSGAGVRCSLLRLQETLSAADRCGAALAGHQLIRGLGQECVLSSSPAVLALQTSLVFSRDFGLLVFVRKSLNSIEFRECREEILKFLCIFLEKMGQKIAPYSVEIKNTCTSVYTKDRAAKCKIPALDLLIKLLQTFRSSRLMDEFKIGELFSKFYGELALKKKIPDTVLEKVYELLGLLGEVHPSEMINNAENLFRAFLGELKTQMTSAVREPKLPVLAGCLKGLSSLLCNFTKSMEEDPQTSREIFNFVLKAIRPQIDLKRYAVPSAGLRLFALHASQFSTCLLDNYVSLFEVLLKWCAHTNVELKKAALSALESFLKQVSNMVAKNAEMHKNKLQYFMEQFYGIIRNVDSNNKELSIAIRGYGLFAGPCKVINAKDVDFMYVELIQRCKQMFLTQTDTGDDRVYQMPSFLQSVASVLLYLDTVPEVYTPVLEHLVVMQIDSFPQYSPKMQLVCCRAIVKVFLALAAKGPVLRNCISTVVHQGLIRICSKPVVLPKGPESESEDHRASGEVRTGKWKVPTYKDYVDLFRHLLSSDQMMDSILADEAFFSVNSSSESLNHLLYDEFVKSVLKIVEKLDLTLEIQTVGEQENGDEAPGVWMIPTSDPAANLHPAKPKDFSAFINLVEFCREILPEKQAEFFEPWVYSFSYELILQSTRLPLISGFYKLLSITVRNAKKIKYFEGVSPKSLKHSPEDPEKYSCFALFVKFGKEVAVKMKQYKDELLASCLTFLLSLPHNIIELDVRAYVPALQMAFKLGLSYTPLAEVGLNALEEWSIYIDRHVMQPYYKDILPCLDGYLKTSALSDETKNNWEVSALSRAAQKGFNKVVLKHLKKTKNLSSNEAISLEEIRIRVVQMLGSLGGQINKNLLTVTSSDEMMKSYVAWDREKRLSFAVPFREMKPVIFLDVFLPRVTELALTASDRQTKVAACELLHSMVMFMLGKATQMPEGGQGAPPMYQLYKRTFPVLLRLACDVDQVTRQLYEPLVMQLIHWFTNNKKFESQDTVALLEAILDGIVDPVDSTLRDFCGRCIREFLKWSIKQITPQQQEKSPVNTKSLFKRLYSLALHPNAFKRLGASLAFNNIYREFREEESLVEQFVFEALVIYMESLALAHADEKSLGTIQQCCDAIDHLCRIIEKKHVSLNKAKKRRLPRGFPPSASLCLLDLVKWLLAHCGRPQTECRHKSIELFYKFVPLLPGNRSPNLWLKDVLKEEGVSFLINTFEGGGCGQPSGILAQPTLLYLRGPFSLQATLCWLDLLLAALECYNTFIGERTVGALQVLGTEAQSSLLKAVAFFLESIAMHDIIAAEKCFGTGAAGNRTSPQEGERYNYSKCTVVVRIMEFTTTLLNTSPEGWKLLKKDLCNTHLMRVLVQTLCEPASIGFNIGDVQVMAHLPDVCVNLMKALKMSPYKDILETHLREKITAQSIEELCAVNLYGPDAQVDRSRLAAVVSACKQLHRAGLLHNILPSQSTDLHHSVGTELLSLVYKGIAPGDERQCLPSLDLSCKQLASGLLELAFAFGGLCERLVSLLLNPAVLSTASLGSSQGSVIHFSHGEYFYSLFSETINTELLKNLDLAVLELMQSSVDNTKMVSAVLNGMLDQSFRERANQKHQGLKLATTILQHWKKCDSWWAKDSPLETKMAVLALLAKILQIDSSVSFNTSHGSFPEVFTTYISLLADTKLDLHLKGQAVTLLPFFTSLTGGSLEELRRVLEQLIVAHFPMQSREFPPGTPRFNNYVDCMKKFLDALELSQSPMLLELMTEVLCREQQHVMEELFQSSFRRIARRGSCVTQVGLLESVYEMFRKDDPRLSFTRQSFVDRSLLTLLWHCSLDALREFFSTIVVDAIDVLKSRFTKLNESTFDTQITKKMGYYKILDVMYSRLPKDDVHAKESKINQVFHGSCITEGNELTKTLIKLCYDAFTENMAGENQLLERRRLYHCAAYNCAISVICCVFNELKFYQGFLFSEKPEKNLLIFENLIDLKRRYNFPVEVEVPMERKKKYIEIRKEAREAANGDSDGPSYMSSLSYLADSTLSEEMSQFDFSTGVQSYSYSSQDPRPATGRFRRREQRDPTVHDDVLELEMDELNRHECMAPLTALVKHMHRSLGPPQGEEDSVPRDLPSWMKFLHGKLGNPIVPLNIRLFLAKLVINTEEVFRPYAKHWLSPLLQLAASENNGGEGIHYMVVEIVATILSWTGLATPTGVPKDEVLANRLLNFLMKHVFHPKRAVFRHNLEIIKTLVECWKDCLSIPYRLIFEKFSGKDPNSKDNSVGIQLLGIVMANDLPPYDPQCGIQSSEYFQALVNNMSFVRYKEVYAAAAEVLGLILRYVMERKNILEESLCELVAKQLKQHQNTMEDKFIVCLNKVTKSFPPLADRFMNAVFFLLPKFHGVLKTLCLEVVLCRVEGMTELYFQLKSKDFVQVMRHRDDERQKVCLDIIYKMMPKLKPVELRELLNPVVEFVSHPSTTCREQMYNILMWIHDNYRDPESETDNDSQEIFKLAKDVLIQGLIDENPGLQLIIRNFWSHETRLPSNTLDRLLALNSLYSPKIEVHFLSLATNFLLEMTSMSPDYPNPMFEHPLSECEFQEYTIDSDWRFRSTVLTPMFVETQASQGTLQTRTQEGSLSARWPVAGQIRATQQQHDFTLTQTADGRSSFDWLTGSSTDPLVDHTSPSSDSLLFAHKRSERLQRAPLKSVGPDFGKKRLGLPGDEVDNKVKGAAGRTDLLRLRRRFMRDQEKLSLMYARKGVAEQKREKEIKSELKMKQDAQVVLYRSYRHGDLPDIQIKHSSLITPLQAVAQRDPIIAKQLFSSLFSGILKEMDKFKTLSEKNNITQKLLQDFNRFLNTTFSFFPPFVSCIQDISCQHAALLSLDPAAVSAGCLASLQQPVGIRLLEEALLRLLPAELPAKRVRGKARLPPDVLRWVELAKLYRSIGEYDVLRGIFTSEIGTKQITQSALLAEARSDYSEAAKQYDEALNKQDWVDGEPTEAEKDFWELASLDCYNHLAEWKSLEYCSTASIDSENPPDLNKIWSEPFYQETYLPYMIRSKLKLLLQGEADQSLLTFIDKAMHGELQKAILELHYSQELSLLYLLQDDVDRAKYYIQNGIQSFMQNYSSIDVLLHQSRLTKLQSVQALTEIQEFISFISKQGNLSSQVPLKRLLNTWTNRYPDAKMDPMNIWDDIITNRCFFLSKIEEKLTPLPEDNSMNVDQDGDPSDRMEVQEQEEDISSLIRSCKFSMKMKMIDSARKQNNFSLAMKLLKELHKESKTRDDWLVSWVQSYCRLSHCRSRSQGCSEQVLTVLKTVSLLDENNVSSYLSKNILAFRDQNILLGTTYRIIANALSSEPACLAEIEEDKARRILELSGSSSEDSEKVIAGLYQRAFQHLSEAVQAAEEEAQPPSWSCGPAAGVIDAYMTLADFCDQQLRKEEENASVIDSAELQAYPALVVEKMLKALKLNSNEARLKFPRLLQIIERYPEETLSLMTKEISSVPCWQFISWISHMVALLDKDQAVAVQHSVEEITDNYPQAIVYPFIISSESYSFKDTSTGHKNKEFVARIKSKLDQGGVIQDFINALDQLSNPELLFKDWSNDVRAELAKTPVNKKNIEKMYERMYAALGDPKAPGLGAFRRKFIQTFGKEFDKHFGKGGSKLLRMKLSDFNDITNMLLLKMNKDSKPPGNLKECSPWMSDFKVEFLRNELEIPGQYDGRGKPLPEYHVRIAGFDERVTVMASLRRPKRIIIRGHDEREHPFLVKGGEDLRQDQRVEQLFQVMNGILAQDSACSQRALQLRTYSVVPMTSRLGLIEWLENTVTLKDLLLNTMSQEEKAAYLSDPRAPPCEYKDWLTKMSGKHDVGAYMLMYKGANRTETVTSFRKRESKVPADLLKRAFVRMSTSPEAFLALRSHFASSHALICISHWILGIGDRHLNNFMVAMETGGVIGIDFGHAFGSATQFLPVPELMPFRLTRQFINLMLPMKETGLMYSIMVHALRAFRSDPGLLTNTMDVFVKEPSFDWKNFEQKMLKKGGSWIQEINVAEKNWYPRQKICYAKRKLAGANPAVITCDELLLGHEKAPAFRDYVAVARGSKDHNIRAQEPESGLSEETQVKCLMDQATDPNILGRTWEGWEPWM

Compound | IC50 [nM]
CNS(=O)(=O)c1ccc2c(c1)C(=Cc1[nH]c3c(c1CCCN(C)C)CCCC3)C(=O)N2 [3-{3-(3-dimethylamino-propyl)-4,5,6,7-tetrahydro-1H-indol-2-ylmethylene]-2-oxo-2,3-dihydro-1H-indole-5-sulfonic acid methylamide] | 66000
Cc1c(CCC(=O)O)c[nH]c1/C=C1\C(=O)Nc2ccc(I)cc21 [3-{5-[(Z)-(5-iodo-2-oxo-1,2-dihydro-3H-indol-3-ylidene)methyl]-4-methyl-1H-pyrrol-3-yl}propanoic acid] | 1500

Results, then the compound that gave them:

IC50 [nM] | Compound
1600 | CCc1[nH]c(/C=C2\C(=O)Nc3ccc(S(=O)(=O)Nc4ccccc4)cc32)c(CC)c1CCC(=O)O [Example 83, 3-[2,4-Diethyl-5-(2-oxo-5-phenylsulfamoyl-1,2-dihydro-indol-3-ylidenemethyl)-1H-pyrrol-3-yl]-propionic acid]
1700 | 2-oxo-3-[5-(2-pyrrolidin-1-yl-ethoxy-1H-indol-2-ylmethylene]-2,3-dihydro-1H-indole-sulfonic acid amide
34000 | CCN(CC)CCNC(=O)c1c(C)[nH]c(C=C2C(=O)Nc3ccc(Br)cc32)c1C [5-(5-bromo-2-oxo-1,2-dihydro-indol-3-ylidenemethyl)-2,4-dimethyl-1H-pyrrole-3-carboxylic acid-(2-diethylamino-ethyl)-amide]

Tested on: not listed separately
Assay: Storage stability of stock solution
Assay type: physicochemical
Conditions: 2 mM in DMSO, stored at −70° C., after 12 months
Method: 3-[2,4-Diethyl-5-(2-oxo-5-phenylsulfamoyl-1,2-dihydro-indol-3-ylidenemethyl)-1H-pyrrol-3-yl]-propionic acid was dissolved in DMSO at 20 mg/ml and stored at −70° C. Calicheamicin μl was a generous gift from George Ellestad (Wyeth-Ayers Research). The drug was dissolved at 2 mM in DMSO (Sigma) and stored at −70° C. […] Wortmannin (Sigma) was dissolved at 1 mg/ml in DMSO and stored at −70° C. Recombinant p110 was purchased from Alexis and stored at −70° C. The glioblastoma cell line Mo59K and primary human fibroblasts was grown in Dulbecos MEM with glutamax (Invitrogen) supplemented with 10% Fetal calf serum, streptomycin and penicillin at 37° C. in a humidified cell incubator with 5% CO2. FACS analysis of cell cycle distribution after propiumiodide staining was done using standard protocols. Monolayers were irradiated on ice using a Philips RT 100 X-ray machine. An acceleration voltage of 70 kV was used.

Compound | loss of activity on storage
calicheamicin μl | no loss of activity
